Experimental findings from ChEMBL document CHEMBL1133214, “Novel nikkomycin analogues: inhibitors of the fungal cell wall biosynthesis enzyme chitin synthase” (Bioorg Med Chem Lett, 2000) are described below.

For orientation: IC50 means the midpoint of a concentration-inhibition curve.

Values after ≈ are worked out from the molar mass of the structure shown.

Assay [1] in a line: Inhibition of chitin synthase isolated from Candida Albicans.
The test system of another assay is Candida albicans. The experiment in a line: Percent inhibition rate of 100 ug/mL against chitin synthase isolated from Candida albicans.

Turning to `CC(C)(SCc1cccc(O)c1)[C@H](N)C(=O)N[C@H](C(=O)O)[C@H]1O[C@@H](n2ccc(=O)[nH]c2=O)[C@H](O)C1O` (single isomer, unassigned), the IC50 in assay [1] came out at 4.91 µg/mL (≈ 9.36 µM). Besides, the Rate in the assay on Candida albicans was 100%. The molecule `CC(C)(SCc1ccc2ccccc2c1)[C@H](N)C(=O)N[C@H](C(=O)O)[C@H]1O[C@@H](n2ccc(=O)[nH]c2=O)[C@H](O)C1O` (single isomer, unassigned) showed an IC50 in assay [1] of 1.42 µg/mL (≈ 2.54 µM). Moreover, in the assay with Candida albicans, the Rate turned out to be 94%.

In assay [1], `CC(C)(SCc1ccc(O)cc1)[C@H](N)C(=O)N[C@H](C(=O)O)[C@H]1O[C@@H](n2ccc(=O)[nH]c2=O)[C@H](O)C1O` (single isomer, unassigned) yielded an IC50 of 5.89 µg/mL (≈ 11.2 µM). In the assay on Candida albicans, this molecule displayed a Rate of 99%. `CC(C)(SCc1ccc(O)cn1)[C@H](N)C(=O)N[C@H](C(=O)O)[C@H]1O[C@@H](n2ccc(=O)[nH]c2=O)[C@H](O)C1O` (single isomer, unassigned) came in with a Rate in the assay with Candida albicans of 58%. `CC(C)(SCc1ccccc1O)[C@H](N)C(=O)N[C@H](C(=O)O)[C@H]1O[C@@H](n2ccc(=O)[nH]c2=O)[C@H](O)C1O` (single isomer, unassigned) gave a concentration for half-maximal inhibition (IC50) in assay [1] of 13.8 µg/mL (≈ 26.3 µM). In the assay on Candida albicans, this molecule showed a Rate of 88%.

With `CC(=O)NCSC[C@H](N)C(=O)N[C@H](C(=O)O)[C@H]1O[C@@H](n2ccc(=O)[nH]c2=O)[C@H](O)C1O` (single isomer, unassigned), the Rate in the assay on Candida albicans is 65%. As for `N[C@@H](CSc1ccccn1)C(=O)N[C@H](C(=O)O)[C@H]1O[C@@H](n2ccc(=O)[nH]c2=O)[C@H](O)C1O` (single isomer, unassigned), the Rate in the assay on Candida albicans amounted to 48%.

The molecule `N[C@@H](Cc1ccc(O)cc1)C(=O)N[C@H](C(=O)O)[C@H]1O[C@@H](n2ccc(=O)[nH]c2=O)[C@H](O)C1O` (single isomer, unassigned) displayed an IC50 in assay [1] of 4.83 µg/mL (≈ 10.7 µM). In the assay on Candida albicans, the Rate worked out at 99%. In the assay with Candida albicans, `N[C@@H](CSCC1CCCCC1)C(=O)N[C@H](C(=O)O)[C@H]1O[C@@H](n2ccc(=O)[nH]c2=O)[C@H](O)C1O` (single isomer, unassigned) showed a Rate of 67%. Still for that read-out and setting: under `N[C@@H](CSc1ccc(O)cc1)C(=O)N[C@H](C(=O)O)[C@H]1O[C@@H](n2ccc(=O)[nH]c2=O)[C@H](O)C1O` (single isomer, unassigned) stands 44%; under `CC(C)=CCC/C(C)=C/CSC[C@H](N)C(=O)N[C@H](C(=O)O)[C@H]1O[C@@H](n2ccc(=O)[nH]c2=O)[C@H](O)C1O` (single isomer, unassigned), 22%. In the assay on Candida albicans, `CCCCCCCCCCCCSC[C@H](N)C(=O)N[C@H](C(=O)O)[C@H]1O[C@@H](n2ccc(=O)[nH]c2=O)[C@H](O)C1O` (single isomer, unassigned) returned a Rate of 64%. In the assay on Candida albicans, `N[C@@H](Cc1ccc(O)cn1)C(=O)N[C@H](C(=O)O)[C@H]1O[C@@H](n2ccc(=O)[nH]c2=O)[C@H](O)C1O` (single isomer, unassigned) showed a Rate of 34%. On to `N[C@@H](CSCc1ccccc1)C(=O)N[C@H](C(=O)O)[C@H]1O[C@@H](n2ccc(=O)[nH]c2=O)[C@H](O)C1O` (single isomer, unassigned), for which, in the assay with Candida albicans, the Rate was 78%.

For the molecule `CC(C)(SCc1ccccc1)[C@H](N)C(=O)N[C@H](C(=O)O)[C@H]1O[C@@H](n2ccc(=O)[nH]c2=O)[C@H](O)C1O` (single isomer, unassigned), the IC50 in assay [1] was determined as 9.83 µg/mL (≈ 19.3 µM). For the same molecule, the Rate with Candida albicans was determined as 97%. In assay [1], `N[C@@H](CSc1ccc(C(=O)O)cn1)C(=O)N[C@H](C(=O)O)[C@H]1O[C@@H](n2ccc(=O)[nH]c2=O)[C@H](O)C1O` (single isomer, unassigned) registered an IC50 of 52.5 µg/mL (≈ 103 µM). In the assay with Candida albicans, this molecule returned a Rate of 64%.

In assay [1], `C[C@@H]([C@H](N)C(=O)N[C@H](C(=O)O)[C@H]1O[C@@H](n2ccc(=O)[nH]c2=O)[C@H](O)C1O)[C@H](O)c1ccc(O)cn1` (single isomer, unassigned) [NIKKOMYCIN] had an IC50 of 0.393 µg/mL (≈ 0.793 µM).

`N[C@@H](Cc1ccc2ccccc2c1)C(=O)N[C@H](C(=O)O)[C@H]1O[C@@H](n2ccc(=O)[nH]c2=O)[C@H](O)C1O` (single isomer, unassigned): the IC50 in assay [1] worked out at 6.43 µg/mL (≈ 13.3 µM). Moreover, the Rate in the assay on Candida albicans came to 96%. The matching figures for `N[C@@H](Cc1cccnc1)C(=O)N[C@H](C(=O)O)[C@H]1O[C@@H](n2ccc(=O)[nH]c2=O)[C@H](O)C1O` (single isomer, unassigned): 19.8 µg/mL (≈ 45.5 µM) and 82%. Regarding `N[C@@H](CSc1ccc2ccccc2c1)C(=O)N[C@H](C(=O)O)[C@H]1O[C@@H](n2ccc(=O)[nH]c2=O)[C@H](O)C1O` (single isomer, unassigned), in the assay with Candida albicans, the Rate was determined as 40%. On to `N[C@@H](CSc1ccc(O)cn1)C(=O)N[C@H](C(=O)O)[C@H]1O[C@@H](n2ccc(=O)[nH]c2=O)[C@H](O)C1O` (single isomer, unassigned), for which the IC50 in assay [1] came to 36 µg/mL (≈ 74.5 µM). The molecule further showed a Rate in the assay on Candida albicans of 73%.

Regarding `N[C@@H](Cc1cc2ccccc2c2ccccc12)C(=O)N[C@H](C(=O)O)[C@H]1O[C@@H](n2ccc(=O)[nH]c2=O)[C@H](O)C1O` (single isomer, unassigned), the IC50 in assay [1] stood at 0.31 µg/mL (≈ 0.58 µM). The molecule further showed a Rate in the assay on Candida albicans of 99%.

For `N[C@@H](Cc1cccc2ccccc12)C(=O)N[C@H](C(=O)O)[C@H]1O[C@@H](n2ccc(=O)[nH]c2=O)[C@H](O)C1O` (single isomer, unassigned), in assay [1], the IC50 turned out to be 4.69 µg/mL (≈ 9.68 µM). The same molecule had a Rate in the assay on Candida albicans of 99%. Take `Nc1ccc(SC[C@H](N)C(=O)N[C@H](C(=O)O)[C@H]2O[C@@H](n3ccc(=O)[nH]c3=O)[C@H](O)C2O)nc1` (single isomer, unassigned): the Rate in the assay on Candida albicans is 42%.
